Experimental data taken from BigSolDB 2.1.

Cn1c(=O)c2c(ncn2CCO)n(C)c1=O
Conditions | solubility (mole fraction)
in ethanol, 313.9 K | 0.001
in ethanol, 321.2 K | 0.0016
in ethanol, 325.7 K | 0.0023
in ethanol, 327.4 K | 0.0029
in ethanol, 332.5 K | 0.004
in ethanol, 336.8 K | 0.0055
in ethanol, 339.1 K | 0.0065
in ethanol, 339.7 K | 0.0068
in ethanol, 342.4 K | 0.0077
in ethanol, 343.8 K | 0.0081
in ethanol, 344.9 K | 0.0086
in n-octanol, 323.2 K | 0.0026
in n-octanol, 333.2 K | 0.0046
in n-octanol, 335.2 K | 0.006
in n-octanol, 338.4 K | 0.0074
in n-octanol, 343.5 K | 0.0095
in n-octanol, 351.8 K | 0.0149
in n-octanol, 355.5 K | 0.02
in n-octanol, 365.2 K | 0.0259
in water, 290.7 K | 0.0027
in water, 300.9 K | 0.0039
in water, 301.6 K | 0.0041
in water, 303.4 K | 0.0042
in water, 304.6 K | 0.0048
in water, 306 K | 0.0052
in water, 312.5 K | 0.0067
in water, 312.8 K | 0.0067
in water, 316.2 K | 0.0086
in water, 317.9 K | 0.0099
in water, 320.5 K | 0.0119
in water, 322.5 K | 0.0133
in water, 324.9 K | 0.0155
in water, 330.8 K | 0.0204
in water, 334.7 K | 0.026
in water, 342 K | 0.0447
in water, 347.3 K | 0.0623
in water, 348.4 K | 0.0808

Cn1c(=O)c2[nH]cnc2n(C)c1=O
Conditions | solubility (mole fraction)
in ethanol, 309.4 K | 0.0008
in ethanol, 313 K | 0.0013
in ethanol, 318.6 K | 0.002
in ethanol, 321.3 K | 0.0027
in ethanol, 325.2 K | 0.0036
in ethanol, 332.8 K | 0.005
in ethanol, 340.1 K | 0.0083
in ethanol, 345.3 K | 0.0123
in n-octanol, 322.3 K | 0.001
in n-octanol, 327.2 K | 0.0013
in n-octanol, 330.2 K | 0.0017
in n-octanol, 336.7 K | 0.0025
in n-octanol, 337.5 K | 0.0027
in n-octanol, 343.8 K | 0.0045
in n-octanol, 352.1 K | 0.0063
in n-octanol, 355.3 K | 0.0069
in n-octanol, 364.5 K | 0.008
in water, 308.5 K | 0.0004
in water, 310.6 K | 0.0005
in water, 314.5 K | 0.0007
in water, 316.7 K | 0.0009
in water, 319.3 K | 0.001
in water, 323.4 K | 0.0012
in water, 326.2 K | 0.0018
in water, 333.3 K | 0.0026
in water, 337.6 K | 0.0039
in water, 342.6 K | 0.0064
in water, 343.1 K | 0.007

Cn1cnc2c1c(=O)[nH]c(=O)n2C
solubility (mole fraction)
Conditions | 293.15 K | 298.15 K | 303.15 K | 308.15 K | 313.15 K | 318.15 K
in ethanol | 1.53e-05 | 2.33e-05 | 3.15e-05 | 3.85e-05 | 5.49e-05 | 6.34e-05
in n-octanol | 0.000214 | 0.000433 | – | 0.00061 | – | 0.000824
in water | 0.001 | 0.00101 | 0.00101 | 0.00103 | 0.00104 | 0.00104
